Read-outs that look alike come from different tables or passages of the source.
Tests used:
H460 = test: Alamar blue cytotoxicity assay on H460 cancer cells; type: cell-based, human; conditions: for IC50: Homo sapiens, NCI-H460, alamar blue, 48 hours treatment
Experimental: (§1) The endothelial cells (human endothelial-like cells, Eahy926) and 4 cancer cell lines (MCF-7, H460, HT-29, and CEM) were derived from the American Type Culture Collection (ATCC) and were maintained in DMEM or RPMI medium (Life Technologies) supplemented with 2 mM L-glutamine and 10% heat-inactivated fetal bovine serum (FBS) (Life Technologies) under standard culture conditions. The cell viability and cell number were determined by the Trypan Blue dye-exclusion method.
(§2) The alamar blue (AB) assay (dye purchased from Biosource International, Nivelles, Belgium) was used to estimate cell viability in accordance with procedures previously described by Fatokun et al (Bone (2006) 39, 542-551). Briefly, cells were treated with various concentration of each of the test compounds (e.g., compounds of example 1.1) at 37° C. for 48 hours, and the medium in each well was then aspirated at the end of the treatment, 100 μL of fresh medium containing 10% v/v AB was then added to the control and the treated wells, respectively. Plates were then incubated at 37° C. for 6 hour prior to measuring the absorbance at 570 nm and at 600 nm wavelengths using a spectrophotometric plate reader (DYNEX Technologies, USA). Experimental data were normalized to control values. CH-205-A, K, L, O, and -P were effective on MCF-7 cells; CH-205-A, H, K, L, O, and -P were effective on H460 cells; CH-205-A and -P were effective on HT-29 cells and CH-205-A, H, N, and -O were effective on CEM cells.

CEM = test: Alamar blue cytotoxicity assay on CEM cancer cells; type: cell-based; conditions: for IC50: Homo sapiens, CCRF-CEM, alamar blue, 48 hours treatment
Experimental: as §1, §2

HT-29 = test: Alamar blue cytotoxicity assay on HT-29 cancer cells; type: cell-based; conditions: Homo sapiens, HT-29; alamar blue, 48 hours treatment
Experimental: as §1, §2

MCF-7 = test: Alamar blue cytotoxicity assay on MCF-7 cancer cells; type: cell-based; conditions: for IC50: Homo sapiens, MCF7, alamar blue, 48 hours treatment
Experimental: as §1, §2

[1] = system: endothelial cells (human endothelial-like cells, Eahy926); test: MTT cell viability of endothelial cells (ECs); type: cell-based
Experimental: as §1
(§3) Anti-angiogenic effects of CH-205 compounds were estimated by their inhibition on the growth of endothelial cells. The toxicity of CH-205 compounds to endothelial cells was estimated using MTT (3-(4,5-dimethy;thiazol-2-yl)-2,5-diphenyltetrazolium bromide, a tetrazole) assay. MTT assay is a standard colorimetric assay (an assay which measures changes in color) for measuring the activity of enzymes that reduce yellow MTT to formazan, giving a purple color. It is also used to determine cytotoxity of potential medicinal agents and other toxic materials, since those agents would result in cell toxicity and therefore metabolic dysfunction and therefore decreased performance in the assay. The cytotoxity concentrations of the CH-205 compounds measured in MTT test are all over 20 μM (Table 2), however, their effects on angiogenesis inhibition are in nM range, indicating the safety of these compounds (Table 3).

[2] = MTT cell viability of endothelial cells (ECs); type: cell-based, human; conditions: human, Eahy926 endothelial-like cells, column head prints none, read-out: Cell viability IC50 (cytotoxicity concentration on ECs)
Experimental: as §1, §3

endothelial cells (ECs) = test: In vitro antiangiogenesis on ECs (inhibition of endothelial cell growth); type: cell-based; conditions: Homo sapiens, ECs, read-out: In vitro antiangiogenesis IC50
Experimental: as §1, §3

[3] = system: H460 human lung cancer tumor xenograft; conditions: for tumor volume after sacrifice / Tumor growth inhibition ratio (TGI): CH-205-O study, 10 times; for tumor volume after sacrifice: solvent control 3.984±0.484
Experimental: The established, transplantable, 5×10^6/200 μL H460 tumor cells were prepared in RPMI medium. The 200 μL of cell suspension was injected subcutaneously into right flank area of each mouse. The mice were randomized into vehicle control and drug treatment groups of four-six animals each when xenografts were palpable with a tumor size of 40 mm^3. Adminitration of the lead compounds or vehicle began on day 15 when the median tumor size was ranged from 75 to 80 mm^3. Tumor-bearing animals were randomized (five per group) prior to treatment. The candidate test drugs were intraperitoneal (IP) administered into with optimal dosage once every other day (48 hr apart) for 7 or 10 times. […] Solvent vehicle and cisplatin (5 mg/kg) were used to administrate, respectively, as io negative and positive controls. Two days after last administration of tested compounds, the animals were sacrificed. The tumor dimensions were measured every other day using a linear caliper and tumor volume is calculated using the equation V (mm^3)=a×b^2/2, where a is the largest diameter and b is the smallest diameter. Body weights are also recorded once weekly. Tumor is growth inhibition ratio (TGI) is calculated using the equation TGI=(1−(the mean treated tumor mass/mean control tumor mass))*100%.

Row | SMILES | IC50 (H460) [µM] | IC50 (CEM) [µM] | IC50 (HT-29) [µM] | IC50 (MCF-7) [µM] | Cell viability (% of control) 1 μM [1] | Cell viability (% of control) 10 μM [1] | Cell viability (% of control) 50 μM [1] | Cell viability (% of control) 100 μM [1] | Cell viability (% of control) 250 μM [1] | Cell viability (% of control) 500 μM [1] | IC50 [2] [µM] | IC50 (endothelial cells (ECs)) [µM] | other results
1 | Cc1c(Cl)c(O)cc(O)c1C(=O)OCC1=C[C@@H]2CC(C)(C)C[C@@H]2[C@@]2(C)C[C@@H](O)[C@@]12O [CH-205-H, (((2R,2aS,4aS,7aS,7bR)-2,2a,4a,5,6,7,7a,7b-octahydro-2,2a-dihydroxy-6,6,7 b-trimethyl-1H-cyclobuta[e]inden-3-yl)methyl 3-chloro-4,6-dihydroxy-2-methylbenzoate)] | 5.5 | 5.4 | 7.1 | 56.5 | 99.7 % of control | 128.7 % of control | 34.9 % of control | 12.7 % of control | 8.4 % of control | 7.0 % of control | 29.3 | 0.0013 | melting point: 148 to 149 °C
2 | COc1cc(O)c(C(=O)O[C@@H]2C[C@]3(C)C4CC(C)(C)CC4C=C(C=O)[C@]23O)c(C)c1Cl (stereo partly drawn) [CH-205-O, (2R,2aS,7bR)-3-formyl-2,2a,4a,5,6,7,7a,7b-octahydro-2a-hydroxy-6,6,7b-trimethyl-1 H-cyclobuta[e]inden-2-yl 3-chloro-6-hydroxy-4-methoxy-2-methylbenzoate] | 4.5 | 5.1 | 42.1 | 1.7 | 98.5 % of control | 43.6 % of control | 7.0 % of control | 6.5 % of control | 7.1 % of control | 7.0 % of control | 13.2 | 0.0021 | effective on H460 cells (H460): effective; effective on CEM cells (CEM): effective; tumor volume after sacrifice ([3]; 4 mg/kg IP every other day): 1.475±0.155 cm^3; Tumor growth inhibition ratio (TGI) ([3]; 4 mg/kg IP): 60.87%; tumor volume after sacrifice ([3]; 40 mg/kg IP every other day): 1.470±0.177 cm^3; Tumor growth inhibition ratio (TGI) ([3]; 40 mg/kg IP): 70.7%; tumor volume after sacrifice ([3]; 80 mg/kg IP every other day): 1.645±0.206 cm^3; Tumor growth inhibition ratio (TGI) ([3]; 80 mg/kg IP): 62.9%; tumor regression ([3]; CH-205-O study, 4, 40 and 80 mg/kg each other day, after 10 injections): highly significant tumor regression; effect on body weight ([3]; mouse, in vivo): no different effect on body weight; effective on MCF-7 cells (MCF-7): effective

— patent US20110262561A1, “Protoilludance Norsesquiterpenoid Esters and Uses Thereof” (NATIONAL RESEARCH INSTITUTE OF CHINESE MEDICINE, priority 2010, published 2011)
